PubChem BioAssay AID270 (DTP/NCI, 2004)
“And” between values parts separate entries of the source, which are not always exact repeats. Equal entries are not always repeated. Results filed as inconclusive are left out.

Tested on: BDF1 mice, s.c. Lewis lung carcinoma, T/C %
Experiment: NCI In Vivo Anticancer Drug Screen. Data for tumor model Lewis Lung Carcinoma (subcutaneous) in B6D2F1 (BDF1) mice
Summary of the method: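 Antitumor effect in vivo is scored from survival or tumor burden, reported as treated relative to vehicle controls.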

[1] = endpoint: median survival time, dose: 0.5 mg/kg/injection, schedule: Q01DX009 (ip), vehicle: Klucel (hydroxypropylcellulose) (HPC), higher = longer survival
[2] = endpoint: median survival time, dose: 1.0 mg/kg/injection, schedule: Q01DX009 (ip), vehicle: Klucel (hydroxypropylcellulose) (HPC), higher = longer survival
[3] = endpoint: median survival time, dose: 2.0 mg/kg/injection, schedule: Q01DX009 (ip), vehicle: Klucel (hydroxypropylcellulose) (HPC), higher = longer survival
[4] = endpoint: mean tumor weight, dose: 200.0 mg/kg/injection, schedule: Q01DX011 (ip), vehicle: carboxymethylcellulose (CMC), higher = larger tumour
[5] = endpoint: mean tumor weight, dose: 100.0 mg/kg/injection, schedule: Q01DX011 (ip), vehicle: carboxymethylcellulose (CMC), higher = larger tumour

## Nc1nc(N)c(N=O)c(Nc2ccc(Br)cc2)n1
endpoint: mean tumor weight, dose: 10.0 mg/kg/injection, schedule: Q01DX011 (ip), vehicle: other, higher = larger tumour
  T/C: 76 % of control
endpoint: mean tumor weight, dose: 20.0 mg/kg/injection, schedule: Q01DX011 (ip), vehicle: other, higher = larger tumour
  T/C: 114 % of control
endpoint: mean tumor weight, dose: 40.0 mg/kg/injection, schedule: Q01DX011 (ip), vehicle: other, higher = larger tumour
  T/C: 70 % of control
endpoint: mean tumor weight, dose: 80.0 mg/kg/injection, schedule: Q01DX011 (ip), vehicle: other, higher = larger tumour
  T/C: 44 % of control and 45 % of control
endpoint: mean tumor weight, dose: 160.0 mg/kg/injection, schedule: Q01DX011 (ip), vehicle: other, higher = larger tumour
  T/C: 47 % of control
endpoint: mean tumor weight, dose: 320.0 mg/kg/injection, schedule: Q01DX011 (ip), vehicle: other, higher = larger tumour
  T/C: 62 % of control

## O=c1ccn(C2OC(CO)C(O)C2O)c(=O)[nH]1 (stereo not drawn)
endpoint: median survival time, dose: 0.2 mg/kg/injection, schedule: Q01DX011 (adlb), vehicle: water, higher = longer survival
  T/C: 97 % of control and 119 % of control
endpoint: median survival time, dose: 0.6 mg/kg/injection, schedule: Q01DX011 (adlb), vehicle: water, higher = longer survival
  T/C: 103 % of control
endpoint: median survival time, dose: 1.0 mg/kg/injection, schedule: Q01DX011 (adlb), vehicle: water, higher = longer survival
  T/C: 86 % of control
endpoint: median survival time, dose: 1.5 mg/kg/injection, schedule: Q01DX011 (adlb), vehicle: water, higher = longer survival
  T/C: 106 % of control
endpoint: median survival time, dose: 2.0 mg/kg/injection, schedule: Q01DX011 (adlb), vehicle: water, higher = longer survival
  T/C: 76 % of control and 100 % of control

## Nc1nc(N)c2nc(CN(CCO)c3ccc(C(=O)NC(CCC(=O)O)C(=O)O)cc3)cnc2n1 (stereo not drawn)
endpoint: median survival time, dose: 0.25 mg/kg/injection, schedule: Q01DX009 (ip), vehicle: Klucel (hydroxypropylcellulose) (HPC), higher = longer survival
  T/C: 96 % of control
[1]
  T/C: 107 % of control
[2]
  T/C: 108 % of control
[3]
  T/C: 89 % of control

## CC1=C/C(O)CC(=O)Cc2nc(co2)C(=O)N2CCC=C2C(=O)OC(C(C)C)C(C)/C=C\C(=O)NC/C=C\1 (stereo not drawn)
endpoint: median survival time, dose: 0.5 micrograms/kg/injection, schedule: Q01DX009 (ip), vehicle: saline, higher = longer survival
  T/C: 103 % of control
endpoint: median survival time, dose: 1.0 micrograms/kg/injection, schedule: Q01DX009 (ip), vehicle: saline, higher = longer survival
  T/C: 94 % of control
endpoint: median survival time, dose: 2.0 micrograms/kg/injection, schedule: Q01DX009 (ip), vehicle: saline, higher = longer survival
  T/C: 98 % of control
endpoint: median survival time, dose: 4.0 micrograms/kg/injection, schedule: Q01DX009 (ip), vehicle: saline, higher = longer survival
  T/C: 99 % of control

## NCCc1ccc(O)c(O)c1
endpoint: median survival time, dose: 37.0 mg/kg/injection, schedule: Q01DX009 (ip), vehicle: saline, higher = longer survival
  T/C: 119 % of control
endpoint: median survival time, dose: 75.0 mg/kg/injection, schedule: Q01DX009 (ip), vehicle: saline, higher = longer survival
  T/C: 109 % of control
endpoint: median survival time, dose: 150.0 mg/kg/injection, schedule: Q01DX009 (ip), vehicle: saline, higher = longer survival
  T/C: 88 % of control
endpoint: median survival time, dose: 600.0 mg/kg/injection, schedule: Q01DX009 (ip), vehicle: saline, higher = longer survival
  T/C: 107 % of control

## CC(=O)O[C@@H]1[C@H]2O[C@H]2[C@H]2O[C@@]2(COC(=O)c2ccccc2)[C@H]1OC(C)=O
endpoint: mean tumor weight, dose: 150.0 mg/kg/injection, schedule: Q01DX011 (ip), vehicle: carboxymethylcellulose (CMC), higher = larger tumour
  T/C: 24 % of control
[4]
  T/C: 307 % of control
endpoint: mean tumor weight, dose: 300.0 mg/kg/injection, schedule: Q01DX011 (ip), vehicle: carboxymethylcellulose (CMC), higher = larger tumour
  T/C: 119 % of control
endpoint: median survival time, dose: 3.12 mg/kg/injection, schedule: Q01DX009 (ip), vehicle: gum acacia, higher = longer survival
  T/C: 95 % of control
endpoint: median survival time, dose: 6.25 mg/kg/injection, schedule: Q01DX009 (ip), vehicle: gum acacia, higher = longer survival
  T/C: 92 % of control
endpoint: median survival time, dose: 12.5 mg/kg/injection, schedule: Q01DX009 (ip), vehicle: gum acacia, higher = longer survival
  T/C: 115 % of control
endpoint: median survival time, dose: 25.0 mg/kg/injection, schedule: Q01DX009 (ip), vehicle: gum acacia, higher = longer survival
  T/C: 87 % of control

## CN[C@@H](C)[C@@H](O)c1ccccc1
endpoint: mean tumor weight, dose: 25.0 mg/kg/injection, schedule: Q01DX011 (ip), vehicle: carboxymethylcellulose (CMC), higher = larger tumour
  T/C: 123 % of control
[5]
  T/C: 85 % of control
[4]
  T/C: 72 % of control

## CC1CCC2(NC1)OC1CC3C4CCC5CC(OC6OC(CO)C(OC7OC(CO)C(O)C(OC8OCC(O)C(O)C8O)C7OC7OC(CO)C(O)C(O)C7O)C(O)C6O)CCC5(C)C4CCC3(C)C1C2C (stereo not drawn)
endpoint: mean tumor weight, dose: 5.0 mg/kg/injection, schedule: Q01DX011 (sc), vehicle: steriod suspending solution, higher = larger tumour
  T/C: 104 % of control
endpoint: mean tumor weight, dose: 10.0 mg/kg/injection, schedule: Q01DX011 (sc), vehicle: steriod suspending solution, higher = larger tumour
  T/C: 77 % of control
endpoint: mean tumor weight, dose: 20.0 mg/kg/injection, schedule: Q01DX011 (sc), vehicle: steriod suspending solution, higher = larger tumour
  T/C: 85 % of control
endpoint: mean tumor weight, dose: 40.0 mg/kg/injection, schedule: Q01DX011 (sc), vehicle: steriod suspending solution, higher = larger tumour
  T/C: 94 % of control

## O=c1c(O)c(-c2ccccc2)oc2ccccc12
endpoint: mean tumor weight, dose: 0.19 mg/kg/injection, schedule: Q01DX011 (ip), vehicle: saline, higher = larger tumour
  T/C: 79 % of control
endpoint: mean tumor weight, dose: 0.39 mg/kg/injection, schedule: Q01DX011 (ip), vehicle: saline, higher = larger tumour
  T/C: 50 % of control
endpoint: mean tumor weight, dose: 0.78 mg/kg/injection, schedule: Q01DX011 (ip), vehicle: saline, higher = larger tumour
  T/C: 105 % of control
endpoint: mean tumor weight, dose: 1.56 mg/kg/injection, schedule: Q01DX011 (ip), vehicle: saline, higher = larger tumour
  T/C: 52 % of control and 58 % of control
endpoint: mean tumor weight, dose: 3.13 mg/kg/injection, schedule: Q01DX011 (ip), vehicle: saline, higher = larger tumour
  T/C: 78 % of control
endpoint: mean tumor weight, dose: 6.25 mg/kg/injection, schedule: Q01DX011 (ip), vehicle: saline, higher = larger tumour
  T/C: 97 % of control
endpoint: mean tumor weight, dose: 12.5 mg/kg/injection, schedule: Q01DX010 (ip), vehicle: saline, higher = larger tumour
  T/C: 67 % of control
endpoint: mean tumor weight, dose: 12.5 mg/kg/injection, schedule: Q01DX011 (ip), vehicle: saline, higher = larger tumour
  T/C: 103 % of control
endpoint: mean tumor weight, dose: 25.0 mg/kg/injection, schedule: Q01DX010 (ip), vehicle: saline, higher = larger tumour
  T/C: 82 % of control
endpoint: mean tumor weight, dose: 50.0 mg/kg/injection, schedule: Q01DX010 (ip), vehicle: saline, higher = larger tumour
  T/C: 104 % of control
endpoint: mean tumor weight, dose: 100.0 mg/kg/injection, schedule: Q01DX010 (ip), vehicle: saline, higher = larger tumour
  T/C: 83 % of control

## O=C1CC(c2ccc(OCN(CCCl)CCCl)cc2)CC(=O)C1CN(CCCl)CCCl (stereo not drawn)
[1]
  T/C: 101 % of control
[2]
  T/C: 123 % of control
[3]
  T/C: 116 % of control
endpoint: median survival time, dose: 4.0 mg/kg/injection, schedule: Q01DX009 (ip), vehicle: Klucel (hydroxypropylcellulose) (HPC), higher = longer survival
  T/C: 123 % of control
endpoint: median survival time, dose: 8.0 mg/kg/injection, schedule: Q01DX009 (ip), vehicle: Klucel (hydroxypropylcellulose) (HPC), higher = longer survival
  T/C: 115 % of control

## Nc1nc(=O)n(C2CC(O)C(CO)O2)cc1Br (stereo not drawn)
endpoint: mean tumor weight, dose: 50.0 mg/kg/injection, schedule: Q01DX011 (ip), vehicle: carboxymethylcellulose (CMC), higher = larger tumour
  T/C: 65 % of control
[5]
  T/C: 55 % of control
[4]
  T/C: 64 % of control
endpoint: mean tumor weight, dose: 400.0 mg/kg/injection, schedule: Q01DX011 (ip), vehicle: carboxymethylcellulose (CMC), higher = larger tumour
  T/C: 88 % of control
endpoint: mean tumor weight, dose: 800.0 mg/kg/injection, schedule: Q01DX011 (ip), vehicle: carboxymethylcellulose (CMC), higher = larger tumour
  T/C: 34 % of control

## CCCCCC/C=C/[N+]([O-])=NC(COC)C(C)O (stereo not drawn)
endpoint: mean tumor weight, dose: 5.0 mg/kg/injection, schedule: Q01DX011 (ip), vehicle: carboxymethylcellulose (CMC), higher = larger tumour
  T/C: 84 % of control
endpoint: mean tumor weight, dose: 10.0 mg/kg/injection, schedule: Q01DX011 (ip), vehicle: carboxymethylcellulose (CMC), higher = larger tumour
  T/C: 96 % of control

## O=c1cc[nH]c(=O)o1
endpoint: median survival time, dose: 1.5 mg/kg/injection, schedule: Q01DX009 (ip), vehicle: water, higher = longer survival
  T/C: 102 % of control
endpoint: median survival time, dose: 3.0 mg/kg/injection, schedule: Q01DX009 (ip), vehicle: water, higher = longer survival
  T/C: 95 % of control
endpoint: median survival time, dose: 3.12 mg/kg/injection, schedule: Q01DX008 (ip), vehicle: water, higher = longer survival
  T/C: 93 % of control
endpoint: median survival time, dose: 3.12 mg/kg/injection, schedule: Q01DX009 (ip), vehicle: water, higher = longer survival
  T/C: 114 % of control
endpoint: median survival time, dose: 6.0 mg/kg/injection, schedule: Q01DX009 (ip), vehicle: water, higher = longer survival
  T/C: 94 % of control
endpoint: median survival time, dose: 6.25 mg/kg/injection, schedule: Q01DX008 (ip), vehicle: water, higher = longer survival
  T/C: 118 % of control
endpoint: median survival time, dose: 6.25 mg/kg/injection, schedule: Q01DX009 (ip), vehicle: water, higher = longer survival
  T/C: 108 % of control and 243 % of control
endpoint: median survival time, dose: 12.0 mg/kg/injection, schedule: Q01DX009 (ip), vehicle: water, higher = longer survival
  T/C: 106 % of control and 108 % of control
endpoint: median survival time, dose: 12.5 mg/kg/injection, schedule: Q01DX008 (ip), vehicle: water, higher = longer survival
  T/C: 114 % of control
endpoint: median survival time, dose: 12.5 mg/kg/injection, schedule: Q01DX009 (ip), vehicle: water, higher = longer survival
  T/C: 103 % of control and 243 % of control
endpoint: median survival time, dose: 24.0 mg/kg/injection, schedule: Q01DX009 (ip), vehicle: water, higher = longer survival
  T/C: 98 % of control and 116 % of control
endpoint: median survival time, dose: 25.0 mg/kg/injection, schedule: Q01DX008 (ip), vehicle: water, higher = longer survival
  T/C: 112 % of control
endpoint: median survival time, dose: 25.0 mg/kg/injection, schedule: Q01DX009 (ip), vehicle: water, higher = longer survival
  T/C: 107 % of control

## N=[N+]=CC(=O)OCC(N)C(=O)O (stereo not drawn)
endpoint: mean tumor weight, dose: 2.5 mg/kg/injection, schedule: Q01DX011 (ip), vehicle: saline, higher = larger tumour
  T/C: 76 % of control and 81 % of control
endpoint: mean tumor weight, dose: 10.0 mg/kg/injection, schedule: Q01DX011 (ip), vehicle: saline, higher = larger tumour
  T/C: 24 % of control and 31 % of control

## COc1cc(NS(C)(=O)=O)ccc1Nc1c2cccc(C)c2nc2c(C)cccc12
endpoint: median survival time, dose: 6.25 mg/kg/injection, schedule: Q01DX011 (ip), vehicle: saline, higher = longer survival
  T/C: 88 % of control
endpoint: median survival time, dose: 12.5 mg/kg/injection, schedule: Q01DX011 (ip), vehicle: saline, higher = longer survival
  T/C: 113 % of control
endpoint: median tumor weight (est.), dose: 25.0 mg/kg/injection, schedule: Q01DX011 (ip), vehicle: saline, higher = larger tumour
  T/C: 579 % of control
